How the values were obtained:
[1] = system: imiquimod induced mouse model of psoriasis; assay: imiquimod induced mouse model of psoriasis; format: in vivo, C57BL/6 mice
From the text: FIG. 2A illustrates the methodological details of an imiquimod induced mouse model of psoriasis. In particular, shown is a timeline of the psoriasis induction model and application of the MARCKS inhibitor (BIO 11006) and the three different outcomes analyzed.
FIG. 2B illustrates the skin thickness in micrometers of mice administered imiquimod daily for seven (7) days in order to mimic psoriasis in one (1) test group as compared to the skin thickness in micrometers from either of two (2) control groups. The test group consisted of mice administered imiquimod daily plus intraperitoneal (ip) injection of BIO 11006 as a daily single dose on each of days 1-7. The two (2) control groups consisted of (1) mice administered vaseline and (2) mice administered imiquimod daily and phosphate buffered saline (PBS). N=6-7 mice, mean+SD, 1-way ANOVA, Tukey test.
FIG. 3 depicts images of mice the skin on the nape of the neck for the test group and two control groups described for FIG. 2B and Example 1. #1, 2 and 3 represent same treatments.
FIG. 4 illustrates the percent dryness, flakiness, skin bumps and redness the skin on the nape of the neck for the test group and two control groups described for FIG. 2B and Example 1. At a scale of 0-5, 0 indicated no visible signs or symptoms; 1-3 indicated moderate forms of the respective sign or symptom; 4-5 indicated major forms of the respective sign or symptom.
Since skin inflammation and itch are common problems, two different mouse models with inflammation and itch were developed and used for rigorous in vivo testing of the inhibition of skin inflammation and itch in response to administration of the MARCKS inhibitor BIO11006 (Ac-GAQFSKTAAK-OH; SEQ ID NO: 106). The first model is a mouse model of AD induced using MC903. The second model is a mouse model of psoriasis induced using imiquimod. Imiquimod-induced disease progression of skin inflammation and itch resemble the MC903 mouse model. As such, the same relative timeline and drug delivery was used for the psoriasis mouse model as described for MC903 mouse model with exception that the terminal day was day 7 (D7 in FIG. 2A). As outlined in FIGS. 1A and 2A, these mouse models were used to conduct a comprehensive examination of how BIO11006 spatially and kinetically changed the skin following the onset of AD-like or psoriasis-like disease symptoms by measuring skin thickness, histological, molecular analysis of inflammatory markers, and itch behavior.
Given that the significant skin inflammation was expected to start at day 5, BIO11006 (100 μM) was administered by intraperitoneal injection in three (3) different settings as described in FIG. 2A (i.e., daily single doses from Day 1 through Day 7, Days 6 and 7 or just Day 7). The skin thickness was measured at Day 0, 1, 3, 5, and 7. Additionally, the itch behavior was recorded at Day 0 and Day 7.

[2] = system: MC903 induced mouse model of atopic dermatitis (AD); assay: MC903 induced mouse model of atopic dermatitis (AD); format: in vivo, C57BL/6 mice; conditions: BIO11006 100 μM ip; day 10 only, days 9-10, days 4-10 or days 1-10
From the text: FIG. 1A illustrates the methodological details of an MC903 induced mouse model of atopic dermatitis (AD). In particular, shown is a timeline of the AD induction model and application of the MARCKS inhibitor (BIO 11006) and the three different outcomes analyzed.
FIG. 1B illustrates the skin thickness in micrometers of mice administered MC903 daily for ten (10) days in order to mimic atopic dermatitis (AD) in each of four (4) test groups as compared to the skin thickness in micrometers of mice from either of two (2) control groups. The four (4) test groups consisted of mice administered MC903 daily plus intraperitoneal (ip) injection of BIO 11006 as either (1) a single dose on day 10, (2) a single dose on each of days 9 and 10, (3) a single dose on each of days 4-10, and (4) a daily single dose on each of days 1-10. The two (2) control groups consisted of (1) mice administered the vehicle only and (2) mice administered MC903 daily and vehicle only. […]
Given that the significant skin inflammation was expected to start at day 5, BIO11006 (100 μM) was administered by intraperitoneal injection in four (4) different settings as described in FIG. 1A (i.e., daily single doses from Day 1 through Day 10, Day 4 through Day 10, Days 9 and 10 or just Day 10). The skin thickness was measured at Day 0, 1, 3, 5, 7 and 10. Additionally, the itch behavior was recorded at Day 0 and Day 10.

[3] = BIO11006 100 μM ip daily, days 1-7, nape of the neck, scale 0-5 (FIG. 4)

Ac-GAQFSKTAAK-OH [BIO 11006]
visible appearance of the skin on the nape of the neck ([1]; BIO11006 100 μM ip daily, days 1-7 (FIG. 3)): visible protection/improvement
skin bumps [1, 3]: significant decreases
skin dryness [1, 3]: significant decreases
skin flakiness [1, 3]: significant decreases
skin redness [1, 3]: significant decreases
skin thickness ([1]; BIO11006 100 μM ip, daily single dose days 1-7, end of the study, vs imiquimod + PBS (FIG. 2B)): significant decrease
results in the mouse model of AD (skin thickness, FIG. 1B) [2]: less conclusive

From US20250262272A1, “PEPTIDES AND METHODS OF USE THEREOF IN TREATING SKIN DISEASES” (Park Strategic Ventures LLC, priority 2022, published 2025)
